Literature values, collected in the PKSmart pharmacokinetics tables (Seal et al. 2025).

What was measured:
[1] = Lombardo et al. 2013, J Clin Pharmacol 53:178, doi 10.1177/0091270012440282; settings: for Vd / clearance: in vivo, iv; for fraction unbound: plasma
[2] = Lombardo, Berellini, Obach 2018, Drug Metab Dispos 46:1466, doi 10.1124/dmd.118.082966; settings: human; in vivo; iv

## COCc1c(-c2ccc(F)cc2)c(=CC[C@@H](O)C[C@@H](O)CC(=O)O)c(C(C)C)nc1=C(C)C
[1]; rat
  Vd: 3 L/kg
  clearance: 27 mL/min/kg
[2]
  MRT: 1.8 h
  Vd: 0.33 L/kg
  clearance: 2.9 mL/min/kg
  half-life: 1.8 h

## CCCCC[C@H](O)CC[C@@H]1[C@H]2Cc3cccc(OCC(=O)O)c3C[C@H]2C[C@H]1O
[1]; dog
  Vd: 0.11 L/kg
  clearance: 35.8 mL/min/kg

## CCCCCNC(=O)c1coc([C@H]2[C@@H](Cc3ccccc3CCC(=O)O)[C@@H]3CC[C@H]2O3)n1
[1]; dog
  Vd: 11 L/kg
  clearance: 65 mL/min/kg
[1]; monkey
  Vd: 5.5 L/kg
  clearance: 19.1 mL/min/kg
[1]; rat
  Vd: 2.8 L/kg
  clearance: 87.5 mL/min/kg
[2]
  MRT: 11 h
  Vd: 4.4 L/kg
  clearance: 6.4 mL/min/kg
  half-life: 22 h

## C[C@@H](O)C1C(=O)N2C(C(=O)O)=C(S[C@H]3CC(C(=O)N4CC[C@H](NC(=O)CN=C(N)N)C4)N(C)C3)[C@H](C)[C@H]12 (some centres undefined)
[1]; dog
  Vd: 0.25 L/kg
  clearance: 3.96 mL/min/kg
  fraction unbound: 0.928
[1]; monkey
  Vd: 0.18 L/kg
  clearance: 1.7 mL/min/kg
  fraction unbound: 0.85
[1]; rat
  Vd: 0.2 L/kg
  clearance: 15.7 mL/min/kg
  fraction unbound: 0.95

## O=C(OC1CC2CC3C[C@@H](C1)N2CC3=O)c1c[nH]c2ccccc12 (some centres undefined)
[1]; dog
  clearance: 27 mL/min/kg
  fraction unbound: 0.5
[1]; monkey
  clearance: 77 mL/min/kg
  fraction unbound: 0.5
[1]; rat
  Vd: 26 L/kg
  clearance: 72 mL/min/kg

## CC1(C)SC2C(NC(=O)C(NC(=O)N3CCNC3=O)c3ccccc3)C(=O)N2C1C(=O)O (centres undefined)
[1]; dog
  Vd: 0.27 L/kg
  clearance: 2.8 mL/min/kg

## CC(NC(=O)N(CCCl)N=O)C(N)=O (centres undefined)
[1]; dog
  clearance: 17.6 mL/min/kg

## C#CCN(C)[C@H](C)Cc1ccccc1
[1]; dog
  Vd: 9.46 L/kg
  clearance: 160 mL/min/kg
[1]; rat
  fraction unbound: 0.31

## O=C(O)CCCCO/N=C(/c1cccnc1)c1cccc(C(F)(F)F)c1
[1]; rat
  Vd: 0.78 L/kg
  clearance: 2 mL/min/kg
  fraction unbound: 0.05

## Cn1c(=O)c2[nH]cnc2n(C)c1=O
[1]; dog
  Vd: 0.68 L/kg
  clearance: 1.8 mL/min/kg
[1]; monkey
  Vd: 0.69 L/kg
  clearance: 3.8 mL/min/kg
[1]; rat
  clearance: 2.25 mL/min/kg

## C[C@@H](O)C1C(=O)N2C(C(=O)O)=C(S[C@@H]3CN[C@H](CNS(N)(=O)=O)C3)[C@H](C)[C@H]12 (some centres undefined)
[1]; dog
  clearance: 4.7 mL/min/kg
  fraction unbound: 0.9
[1]; monkey
  clearance: 7.7 mL/min/kg
  fraction unbound: 0.94
[1]; rat
  clearance: 35.7 mL/min/kg
  fraction unbound: 0.65

## COc1ccc(-c2nc3ccc(C4=NNC(=O)CC4C)cc3[nH]2)cc1 (centres undefined)
[1]; rat
  Vd: 3.5 L/kg

## [H]/N=C(\N)N1CCC[C@@H](CNC(=O)CC(NS(=O)(=O)c2ccc3ccccc3c2)C(=O)N(CC(=O)O)C2CC2)C1 (some centres undefined)
[1]; dog
  Vd: 0.64 L/kg
  fraction unbound: 0.52
[1]; monkey
  Vd: 0.32 L/kg
[1]; rat
  Vd: 0.6 L/kg
  fraction unbound: 0.33

## OC(CNCC(O)C1CCc2cc(F)ccc2O1)C1CCc2cc(F)ccc2O1 (centres undefined)
[1]; rat
  Vd: 6.2 L/kg
  clearance: 49 mL/min/kg
  fraction unbound: 0.015

## CCC1=NC(=O)C2CSSCC/C=C\[C@H](CC(=O)NC(C(C)C)C(=O)N2)OC(=O)C(C(C)C)NC1=O (some centres undefined)
[1]; monkey
  Vd: 4.95 L/kg
  clearance: 27.9 mL/min/kg
[1]; rat
  Vd: 63.8 L/kg
  clearance: 625 mL/min/kg

## C[C@@H](O)C1C(=O)N2C(C(=O)O)=C(SCC/N=C/N)C[C@H]12 (some centres undefined)
[1]; dog
  clearance: 4.3 mL/min/kg
  fraction unbound: 1
[1]; monkey
  clearance: 5.7 mL/min/kg
  fraction unbound: 0.975
[1]; rat
  clearance: 14.5 mL/min/kg
  fraction unbound: 1

## COc1ccccc1Oc1c(NS(=O)(=O)c2ccc(C)cn2)nc(-c2ccnc(-c3nn[nH]n3)c2)nc1OCCO
[1]; dog
  Vd: 0.11 L/kg
  clearance: 2.89 mL/min/kg
[1]; monkey
  Vd: 0.36 L/kg
  clearance: 19 mL/min/kg
[1]; rat
  Vd: 0.32 L/kg
  clearance: 11.7 mL/min/kg

## CC(C)(N)CC(=O)NC1CCc2ccccc2N(Cc2ccc(-c3ccccc3-c3nn[nH]n3)cc2)C1=O (centres undefined)
[1]; dog
  Vd: 0.34 L/kg
  clearance: 19.3 mL/min/kg
  fraction unbound: 0.86
[1]; monkey
  Vd: 0.16 L/kg
  clearance: 5.7 mL/min/kg
  fraction unbound: 0.06
[1]; rat
  Vd: 0.15 L/kg
  clearance: 2.7 mL/min/kg
  fraction unbound: 0.02

## Cc1cccc([C@H](C)c2cnc[nH]2)c1C
[1]; rat
  Vd: 3.24 L/kg
  clearance: 59.4 mL/min/kg

## [H]/N=C(\N)c1ccc(C(=O)NC(Cc2ccc(O)cc2)C(=O)N2CCC(OCC(=O)O)CC2)cc1 (centres undefined)
[1]; dog
  Vd: 0.75 L/kg
[1]; monkey
  Vd: 0.29 L/kg
[1]; rat
  Vd: 0.24 L/kg

## Oc1ccc2c(c1)[C@]13CCCC[C@@]1(O)[C@H](C2)N(CC1CCC1)CC3
[1]; dog
  Vd: 8.4 L/kg
  clearance: 58 mL/min/kg
  fraction unbound: 0.369
[1]; rat
  Vd: 4.8 L/kg
  clearance: 91.2 mL/min/kg
  fraction unbound: 0.34

## CCCc1nn(C)c2c(=O)nc(-c3cc(S(=O)(=O)N4CCN(C)CC4)ccc3OCC)[nH]c12
[1]; dog
  Vd: 5.2 L/kg
  clearance: 12 mL/min/kg
  fraction unbound: 0.14
[1]; rat
  Vd: 1.1 L/kg
  clearance: 48 mL/min/kg

## Cn1nnc2c(C(N)=O)ncn2c1=O
[1]; rat
  Vd: 0.92 L/kg
  clearance: 9.8 mL/min/kg

## O=C(CCCCCCC(O)=NO)Nc1ccccc1
[1]; dog
  fraction unbound: 0.458
[1]; rat
  Vd: 1.6 L/kg
  clearance: 130 mL/min/kg

## COC1CC(OC2C(C)C(=O)OC(C)C(C)C(O)C(C)C(=O)C3(CO3)CC(C)C(OC3OC(C)CC(N(C)C)C3O)C2C)OC(C)C1O (centres undefined)
[1]; dog
  Vd: 1.6 L/kg
  clearance: 12 mL/min/kg
  fraction unbound: 0.13
[1]; rat
  Vd: 6.8 L/kg
  clearance: 51 mL/min/kg
  fraction unbound: 0.46

## CC(=O)Nc1ccc(O)cc1
[1]; rat
  fraction unbound: 0.27

## CN1C2CCC[C@@H]1CC(NC(=O)c1nn(C)c3ccccc13)C2 (some centres undefined)
[1]; rat
  Vd: 16.7 L/kg
  clearance: 824 mL/min/kg

## [H]/N=C(\N)c1ccc(OCCCCCOc2ccc(/C(N)=N/[H])cc2)cc1
[1]; dog
  Vd: 6.6 L/kg
  clearance: 60.6 mL/min/kg
  fraction unbound: 0.266
[1]; rat
  Vd: 10.1 L/kg
  clearance: 112 mL/min/kg
  fraction unbound: 0.4

## COc1ccc2nc([S+](O)Cc3ncc(C)c(OC)c3C)[n-]c2c1 (centres undefined)
[1]; rat
  Vd: 0.44 L/kg
  clearance: 53 mL/min/kg
  fraction unbound: 0.19

## CN(c1nc2ccccc2s1)C1CCN(CC(O)COc2ccc(F)cc2)CC1 (centres undefined)
[1]; rat
  Vd: 5.8 L/kg
  clearance: 35.9 mL/min/kg
  fraction unbound: 0.016

## Cc1nnc(C(C)C)n1C1C[C@H]2CC[C@@H](C1)N2CC[C@H](NC(=O)C1CCC(F)(F)CC1)c1ccccc1 (some centres undefined)
[1]; dog
  Vd: 2.32 L/kg
  clearance: 21 mL/min/kg
  fraction unbound: 0.36
[1]; rat
  Vd: 2.53 L/kg
  clearance: 74 mL/min/kg
  fraction unbound: 0.49

## CC1C(=O)O[C@H]2C[C@@]34[C@H]5C[C@@H](C(C)(C)C)[C@@]36C(O)C(=O)O[C@H]6O[C@@]4(C(=O)O5)[C@@]12O (some centres undefined)
[1]; rat
  Vd: 4.3 L/kg
  clearance: 65 mL/min/kg

## CCN[C@@H]1C[C@H](N)[C@@H](OC2OC(CN)=CCC2N)[C@H](O)[C@H]1O[C@H]1OC[C@](C)(O)[C@H](NC)[C@H]1O (some centres undefined)
[1]; dog
  Vd: 0.34 L/kg
  clearance: 3.4 mL/min/kg
